The source of these data is patent US20260226037A1, “MICROTUBULE TARGETING AGENTS” (ARIEL SCIENTIFIC INNOVATIONS LTD., priority 2022, published 2026).

The test system of experiment [1] is MCF7 cells. Briefly: XTT cytotoxicity, MCF7. In kind it is cell-based. The following applies: Homo sapiens; MCF7, breast adenocarcinoma, non-resistant. As for the experimental part:
(§1) The cytotoxic activity of the novel family was evaluated against various tumor cells, including myeloma cells, acute lymphoblastic leukemia cells, acute monocytic leukemia cells, chronic myelogenous leukemia cells, pancreatic cancer cells, breast cancer cells, uterine sarcoma cells, cervix adenocarcinoma cells, ovary cancer cells, melanoma cells, osteosarcoma cells, prostate cancer cells, lung cancer cells, neuroblastoma cells and colorectal adenocarcinoma cells by XTT assay.

Experiment [2] deals with MES-SA/DX5 cells. The experiment in a line: XTT cytotoxicity, MES-SA/DX5. It is filed as cell-based. The following applies: for IC50: Homo sapiens, MES-SA/DX5, uterine sarcoma, P-gp overexpression; for IC50 ratio between resistant and non-resistant cells: MES-SA/DX5 / MES-SA. How it is done: as §1
In experiment [3] the test system is MCF7-VP cells. Briefly: XTT cytotoxicity, MCF7-VP. In kind it is cell-based. The conditions noted are these: for IC50: Homo sapiens, MCF7-VP, breast adenocarcinoma, MRP overexpression; for IC50 ratio between resistant and non-resistant cells: MCF7-VP / MCF7. As for the experimental part: as §1
The test system of experiment [4] is RPMI 8226 cells. Briefly: XTT cytotoxicity, RPMI 8226. It is filed as cell-based. The following applies: Homo sapiens; RPMI 8226, multiple myeloma, non-resistant; read-out: IC50. How it is done:
as §1

Experiment [5] deals with N6/ADR cells. Briefly: XTT cytotoxicity, N6/ADR. It is filed as cell-based. The conditions noted are these: for IC50 ratio between resistant and non-resistant cells: N6/ADR / NALM6; for IC50: N6/ADR, acute lymphoblastic leukemia, P-gp overexpression, read-out: IC50. As for the experimental part:
as §1
(§2) Most tubulin-binding anticancer drugs currently used in the clinic are substrates for Pgp effux pump. […] The inventors tested the viability of NALM6 acute lymphoblastic leukemia cell line (ALL) and its corresponding doxorubicin resistant N6/ADR cell line that overexpress Pgp glycoprotein and has cross-resistance to vincristine.

Experiment [6] deals with RPMI-MR20 cells. The experiment in a line: XTT cytotoxicity, RPMI-MR20. It is filed as cell-based. The following applies: for IC50: RPMI-MR20, mitoxantrone resistant, read-out: IC50; for IC50 ratio between resistant and non-resistant cells: RPMI-MR20 / RPMI 8226. As for the experimental part: as §1
The test system of experiment [7] is colchicine binding site on tubulin protein. Briefly: EBI competition assay, RPMI-8226 cells. It is filed as cell-based. The conditions noted are these: for prevention of covalent binding of EBI to the colchicine binding site: RPMI-8226 living cells.
The test system of experiment [8] is MES-SA cells. The experiment in a line: XTT cytotoxicity, MES-SA. In kind it is cell-based. The conditions noted are these: Homo sapiens, poorly differentiated uterine sarcoma, non-resistant. As for the experimental part:
as §1

Experiment [9] concerns RPMI-DOX40 cells. Briefly: XTT cytotoxicity, RPMI-DOX40. It is filed as cell-based. The conditions noted are these: for IC50: RPMI-DOX40, multiple myeloma, P-gp overexpression, read-out: IC50; for IC50 ratio between resistant and non-resistant cells: RPMI-DOX40 / RPMI 8226. How it is done: as §1
For experiment [10], the system named is NALM6 cells. Briefly: XTT cytotoxicity, NALM6. In kind it is cell-based. The conditions noted are these: Homo sapiens, NALM-6; NALM6, acute lymphoblastic leukemia, non-resistant; read-out: IC50. As for the experimental part:
as §1, §2

The subject of experiment [11] is RPMI8226 cells. Briefly: Cell cycle distribution by flow cytometry. It is filed as cell-based. The conditions noted are these: 6 hours; IC50, IC50x2.5 and IC50x5 concentrations. How it is done:
Cell cycle arrest is a shared consequence of MTAs treatment. The effects of cell cycle distribution were determined in RPMI8226 cells treated for 6 and 18 hours with a range of concentrations of the molecules. The cells were stained with propidium iodide and cell cycle distribution was measured using a cytoFLEX flow cytometer.

Experiment [12] concerns MM1.R cells. Briefly: XTT cytotoxicity, MM1.R. The following applies: for IC50 ratio between resistant and non-resistant cells: MM1.R / MM1.S; for IC50: MM.1R, MM1.R, multiple myeloma, dexamethasone resistant, read-out: IC50. In kind it is cell-based. As for the experimental part: as §1
Experiment [13] concerns MM1.S cells. Briefly: XTT cytotoxicity, MM1.S. It is filed as cell-based. The following applies: Homo sapiens, multiple myeloma, non-resistant, read-out: IC50. How it is done: as §1
Experiment [14] deals with purified tubulin. The experiment in a line: Tubulin polymerization, cell-free assay. In kind it is biochemical. The conditions noted are these: tubulin 2.00 mg/mL; 1, 15 and 30 μM; 37° C., 100 min; vs vehicle. How it is done: The effect of the compounds on their ability to inhibit tubulin polymerization, was tested against a vehicle control by evaluating polymerization of purified tubulin in a cell-free assay where tubulin (2.00 mg/mL) was exposed to vehicle control or 1, 15 and 30 μM of the compounds (n=2). Polymerizations were tracked by an increase in fluorescence excitation wavelength is 340-360 nm and emission wavelength at 410-460 nm. Fluorescence was monitored at 37° C. every 30 sec for 100 min.

Experiment [15] deals with RPMI-LR5 cells. The experiment in a line: XTT cytotoxicity, RPMI-LR5. In kind it is cell-based. The conditions noted are these: for IC50: RPMI-LR5, multiple myeloma, melphalan resistant, read-out: IC50; for IC50 ratio between resistant and non-resistant cells: RPMI-LR5 / RPMI 8226. How it is done:
as §1

As to `Cc1c(C(=O)OCCCCO)[nH]c2c1C(=O)CC(c1ncco1)C2` (stereo not shown) [SMS096, 4-hydroxybutyl 3-methyl-6-(oxazol-2-yl)-4-oxo-4,5,6,7-tetrahydro-1H-indole-2-carboxylate], the IC50 in experiment [1] was 7840 nM; in [2], 1430 nM; in experiment [3] it was 5740 nM; in experiment [4], 1090 nM; in [5], 54 nM; in experiment [6] it was more than 1800 nM. Besides, the IC50 in experiment [8] stood at 1240 nM; in experiment [9] it was 1180 nM; in experiment [10] it was 624 nM; in experiment [12] it was 1080 nM; in experiment [13], 748 nM; in experiment [15], 1130 nM. Moreover, the “IC50 ratio between resistant and non-resistant cells” value in [2] is 1.153; in [3] it was 0.732; in experiment [5] it was 0.087; in experiment [6], more than 1.647; in experiment [9], 1.081; in [12], 1.447. Besides, the “IC50 ratio between resistant and non-resistant cells” value in experiment [15] amounted to 1.031. Further, the “relative affinity for the colchicine binding site” value in [7] (RPMI-8226 cells, EBI competition) was “higher affinity than SMS001, SMS182, SMS088 and SMS229”. Besides, the “prevention of covalent binding of EBI to the colchicine binding site” value (from here on “prevention of covalent binding of EBI”) in experiment [7] is given as “prevented the covalent binding of EBI to the colchicine binding site”. In addition, the cell cycle arrest result in [11] is listed as “cell cycle arrest in G2M phase”. For the same molecule, the “rate of tubulin polymerization” value in experiment [14] is recorded as “inhibited the rate of tubulin polymerization in a concentration-dependent manner”.

For the molecule `Cc1c(C(=O)OC2CCCC2)[nH]c2c1C(=O)CC(c1ncco1)C2` (stereo not shown) [SMS101, cyclopentyl 3-methyl-6-(oxazol-2-yl)-4-oxo-4,5,6,7-tetrahydro-1H-indole-2-carboxylate], the concentration for half-maximal inhibition (IC50) stood at 11900 nM in experiment [1]; 213 nM in [2]; 351 nM in experiment [3]; 90 nM in [4]; 42 nM in experiment [5]; 99 nM in experiment [6]. Further, the IC50 in experiment [8] is 186 nM; in experiment [9], 77 nM; in experiment [10], 48 nM; in [12], 510 nM; in experiment [13], 129 nM; in [15], 73 nM. The “IC50 ratio between resistant and non-resistant cells” value in [2] is 1.145; in experiment [3], 0.029; in [5] it was 0.875; in experiment [6], 1.100; in [9], 0.856; in [12], 3.953. Moreover, in experiment [15], the “IC50 ratio between resistant and non-resistant cells” value was 0.811. Moreover, in experiment [7], the “prevention of covalent binding of EBI” value was “prevented the covalent binding of EBI to the colchicine binding site”. The cell cycle arrest entry in [11] is on record as “cell cycle arrest in G2M phase”. In addition, the “rate of tubulin polymerization” value in [14] is “inhibited the rate of tubulin polymerization in a concentration-dependent manner”.

In the case of `CCCCCOC(=O)c1[nH]c2c(c1C)C(O)CC(c1ncco1)C2` (stereo not shown) [SMS108, pentyl-4-hydroxy-3-methyl-6-(oxazol-2-yl)-4,5,6,7-tetrahydro-1H-indole-2-carboxylate], the IC50 worked out at 7120 nM in experiment [1]; 490 nM in [2]; 5900 nM in experiment [3]; 516 nM in experiment [4]; 330 nM in [5]; 388 nM in experiment [6]. The IC50 was 700 nM in experiment [8]; 498 nM in experiment [9]; 345 nM in [10]; 1200 nM in experiment [12]; 735 nM in experiment [13]; 427 nM in experiment [15]. The “IC50 ratio between resistant and non-resistant cells” value in experiment [2] is listed as 0.700; in experiment [3] it was 0.828; in experiment [5] it was 0.957; in experiment [6], 0.752; in experiment [9] it was 0.965; in experiment [12] it was 1.633. In addition, the “IC50 ratio between resistant and non-resistant cells” value in [15] worked out at 0.828. The “prevention of covalent binding of EBI” value in experiment [7] was “did not prevent the covalent binding of EBI to the colchicine binding site”. Moreover, in experiment [11], the cell cycle arrest result is on record as “cell cycle arrest in G2M phase”. Moreover, in experiment [14], the “rate of tubulin polymerization” value is “inhibited the rate of tubulin polymerization in a concentration-dependent manner”.
